The structures appear in SMILES notation. Bounds are passed on as bounds.

In data set [1] the target is Metabotropic glutamate receptor 7 (Rattus norvegicus, UniProt P35400). The data set can be described thus: Negative allosteric modulation of rat mGlu7 receptor expressed in HEK cells co-expressing Galpha15 assessed as reduction in calcium mobilization incubated for 142 secs prior to glutamate addition for 120 secs followed by L-AP4 addition and measured after 40 secs by Fluo-4 AM dye based fluorescence assay. The class given is functional, cell-based. For orientation: Calcium flux is commonly read through the fluorescence of an indicator in the cells.
Sequence of Metabotropic glutamate receptor 7 (P35400 whole entry): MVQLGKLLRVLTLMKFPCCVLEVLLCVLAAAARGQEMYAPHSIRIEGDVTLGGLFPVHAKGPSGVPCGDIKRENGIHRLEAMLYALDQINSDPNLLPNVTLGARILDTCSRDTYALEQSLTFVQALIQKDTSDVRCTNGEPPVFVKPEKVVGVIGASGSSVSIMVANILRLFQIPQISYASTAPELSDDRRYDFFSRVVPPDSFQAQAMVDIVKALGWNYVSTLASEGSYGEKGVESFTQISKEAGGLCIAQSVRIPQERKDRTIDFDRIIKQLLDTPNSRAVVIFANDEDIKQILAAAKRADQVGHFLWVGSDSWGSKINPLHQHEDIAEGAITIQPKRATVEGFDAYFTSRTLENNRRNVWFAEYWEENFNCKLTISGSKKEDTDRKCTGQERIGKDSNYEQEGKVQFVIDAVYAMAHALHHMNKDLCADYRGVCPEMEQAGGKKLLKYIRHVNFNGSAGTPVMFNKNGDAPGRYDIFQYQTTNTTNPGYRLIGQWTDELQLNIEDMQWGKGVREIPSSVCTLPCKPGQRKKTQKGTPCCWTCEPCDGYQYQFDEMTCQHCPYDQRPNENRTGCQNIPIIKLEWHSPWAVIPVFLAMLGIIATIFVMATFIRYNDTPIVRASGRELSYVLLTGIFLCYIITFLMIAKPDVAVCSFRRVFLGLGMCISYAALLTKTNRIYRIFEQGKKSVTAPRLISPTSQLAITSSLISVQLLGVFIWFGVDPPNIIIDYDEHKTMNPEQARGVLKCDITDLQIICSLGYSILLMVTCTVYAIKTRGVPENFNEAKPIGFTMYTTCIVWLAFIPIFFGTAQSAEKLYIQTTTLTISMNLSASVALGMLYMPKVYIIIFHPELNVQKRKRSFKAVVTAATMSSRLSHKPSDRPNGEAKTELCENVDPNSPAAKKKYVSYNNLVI

For data set [2], the target named is Metabotropic glutamate receptor 7 (Rattus norvegicus) (UniProt P35400). The data set is described as follows: Negative allosteric modulation of rat mGlu7 receptor expressed in HEK cells co-expressing Galpha15 assessed as minimum L-AP4 response by measuring reduction in calcium mobilization incubated for 142 secs prior to glutamate addition for 120 secs followed by L-AP4 addition and measured after 40 secs by Fluo-4 AM dye based fluorescence assay relative to L-AP4 alone. It is filed as functional, cell-based. Also noted: scale not given: the % may be the effect or the level left.
Sequence of Metabotropic glutamate receptor 7 (Rattus norvegicus) (P35400 whole entry): as above

Data set [3] in a line: Protein binding in rat plasma assessed as unbound fraction at 5 uM measured after 4 hrs by LC-MS/MS analysis. The class given is ADME, cell-free.
Data set [4] can be described thus: Brain to plasma permeability coefficient, Kp of compound in rat. The class given is ADME, cell-free.
A short description of data set [5]: Unbound brain to plasma concentration ratio in rat. It is filed as ADME, cell-free. The following applies: read-out: K(p,uu,brain).
Data set [6] can be described thus: Protein binding in rat brain assessed as unbound fraction at 5 uM measured after 6 hrs by LC-MS/MS analysis. The class given is ADME, tissue-based.
Data set [7] in a line: Total drug level in Sprague-Dawley rat brain at 0.2 mg/kg, iv via cassette dosing measured after 0.25 hrs by LC-MS/MS analysis. It is filed as ADME, organism-based. Conditions: read-out: Drug uptake; call rule not given here.
Data set [8] can be described thus: Free drug level in Sprague-Dawley rat brain at 0.2 mg/kg, iv via cassette dosing measured after 0.25 hrs by LC-MS/MS analysis. The class given is ADME, organism-based. Conditions: in vivo.
For data set [9], the target named is Metabotropic glutamate receptor 1 (Homo sapiens, UniProt Q13255). The data set can be described thus: Negative allosteric modulation of mGlu1 receptor (unknown origin).
Sequence of Metabotropic glutamate receptor 1 (Q13255 whole entry): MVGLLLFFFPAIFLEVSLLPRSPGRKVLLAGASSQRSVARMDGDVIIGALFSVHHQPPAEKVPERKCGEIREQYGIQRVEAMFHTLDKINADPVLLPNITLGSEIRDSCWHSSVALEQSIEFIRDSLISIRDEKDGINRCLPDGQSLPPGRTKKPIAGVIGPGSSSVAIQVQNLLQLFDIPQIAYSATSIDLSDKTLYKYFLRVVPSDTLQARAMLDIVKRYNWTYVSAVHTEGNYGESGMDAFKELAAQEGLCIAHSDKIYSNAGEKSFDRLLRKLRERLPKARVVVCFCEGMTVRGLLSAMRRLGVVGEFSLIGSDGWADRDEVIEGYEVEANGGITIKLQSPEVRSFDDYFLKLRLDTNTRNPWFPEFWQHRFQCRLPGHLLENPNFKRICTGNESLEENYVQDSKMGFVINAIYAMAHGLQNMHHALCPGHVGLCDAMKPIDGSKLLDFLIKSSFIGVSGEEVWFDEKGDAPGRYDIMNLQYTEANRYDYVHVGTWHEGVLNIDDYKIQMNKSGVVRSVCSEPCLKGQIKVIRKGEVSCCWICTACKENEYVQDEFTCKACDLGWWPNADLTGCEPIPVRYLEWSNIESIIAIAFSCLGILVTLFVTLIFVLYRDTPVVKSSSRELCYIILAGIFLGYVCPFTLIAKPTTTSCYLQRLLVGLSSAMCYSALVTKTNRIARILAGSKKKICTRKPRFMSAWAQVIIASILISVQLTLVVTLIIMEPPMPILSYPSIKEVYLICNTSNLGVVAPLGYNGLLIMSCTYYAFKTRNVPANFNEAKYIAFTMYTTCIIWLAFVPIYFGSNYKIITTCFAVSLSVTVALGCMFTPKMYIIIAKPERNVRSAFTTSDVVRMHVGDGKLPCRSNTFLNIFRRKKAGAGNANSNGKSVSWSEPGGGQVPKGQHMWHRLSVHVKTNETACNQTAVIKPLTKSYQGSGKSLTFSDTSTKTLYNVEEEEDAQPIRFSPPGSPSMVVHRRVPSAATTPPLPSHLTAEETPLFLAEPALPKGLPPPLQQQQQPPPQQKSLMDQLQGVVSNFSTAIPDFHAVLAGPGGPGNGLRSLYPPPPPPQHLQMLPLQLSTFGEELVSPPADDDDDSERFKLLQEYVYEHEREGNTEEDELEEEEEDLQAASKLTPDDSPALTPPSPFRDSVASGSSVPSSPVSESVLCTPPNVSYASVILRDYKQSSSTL
Data set [10] has as its target Metabotropic glutamate receptor 2 (Homo sapiens, UniProt Q14416). The data set can be described thus: Negative allosteric modulation of mGlu2 receptor (unknown origin).
The target in data set [11] is Metabotropic glutamate receptor 3 (Homo sapiens, UniProt Q14832). The data set is described as follows: Negative allosteric modulation of mGlu3 receptor (unknown origin).
The target of data set [12] is Metabotropic glutamate receptor 4 (Homo sapiens, UniProt Q14833). The data set is described as follows: Negative allosteric modulation of mGlu4 receptor (unknown origin).
Sequence of Metabotropic glutamate receptor 4 (Q14833 whole entry): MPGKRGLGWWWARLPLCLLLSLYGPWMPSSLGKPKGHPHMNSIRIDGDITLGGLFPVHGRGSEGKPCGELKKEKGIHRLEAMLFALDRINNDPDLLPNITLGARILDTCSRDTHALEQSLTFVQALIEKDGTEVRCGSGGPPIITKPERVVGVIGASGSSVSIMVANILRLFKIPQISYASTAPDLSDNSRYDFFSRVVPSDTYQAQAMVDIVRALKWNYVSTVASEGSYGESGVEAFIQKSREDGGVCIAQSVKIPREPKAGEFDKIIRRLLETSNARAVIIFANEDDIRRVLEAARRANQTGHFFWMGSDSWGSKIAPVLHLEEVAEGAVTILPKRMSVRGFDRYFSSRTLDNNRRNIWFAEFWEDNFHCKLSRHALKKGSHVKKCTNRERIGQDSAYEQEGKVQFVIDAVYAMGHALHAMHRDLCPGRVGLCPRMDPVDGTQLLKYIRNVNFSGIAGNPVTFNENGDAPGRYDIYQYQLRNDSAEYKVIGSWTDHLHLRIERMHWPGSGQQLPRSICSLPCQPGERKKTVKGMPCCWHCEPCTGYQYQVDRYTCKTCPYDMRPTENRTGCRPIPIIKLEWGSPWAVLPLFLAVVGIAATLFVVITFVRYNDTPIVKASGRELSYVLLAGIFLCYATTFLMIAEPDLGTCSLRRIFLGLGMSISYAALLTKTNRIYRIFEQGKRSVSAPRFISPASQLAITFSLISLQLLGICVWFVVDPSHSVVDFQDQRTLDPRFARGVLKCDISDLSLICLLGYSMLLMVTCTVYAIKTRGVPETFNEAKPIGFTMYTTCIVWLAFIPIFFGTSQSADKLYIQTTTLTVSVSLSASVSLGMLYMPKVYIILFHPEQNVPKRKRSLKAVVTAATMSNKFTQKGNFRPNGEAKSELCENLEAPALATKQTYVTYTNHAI
Data set [13] concerns the target Metabotropic glutamate receptor 5 (Homo sapiens, UniProt P41594). The data set can be described thus: Negative allosteric modulation of mGlu5 receptor (unknown origin).
Data set [14] concerns the target Metabotropic glutamate receptor 6 (Homo sapiens, UniProt O15303). The data set is described as follows: Negative allosteric modulation of mGlu6 receptor (unknown origin).
Data set [15] deals with Metabotropic glutamate receptor 8 (Homo sapiens, UniProt O00222). The data set is described as follows: Negative allosteric modulation of mGlu8 receptor (unknown origin).

Sequence of Metabotropic glutamate receptor 6 (O15303 whole entry): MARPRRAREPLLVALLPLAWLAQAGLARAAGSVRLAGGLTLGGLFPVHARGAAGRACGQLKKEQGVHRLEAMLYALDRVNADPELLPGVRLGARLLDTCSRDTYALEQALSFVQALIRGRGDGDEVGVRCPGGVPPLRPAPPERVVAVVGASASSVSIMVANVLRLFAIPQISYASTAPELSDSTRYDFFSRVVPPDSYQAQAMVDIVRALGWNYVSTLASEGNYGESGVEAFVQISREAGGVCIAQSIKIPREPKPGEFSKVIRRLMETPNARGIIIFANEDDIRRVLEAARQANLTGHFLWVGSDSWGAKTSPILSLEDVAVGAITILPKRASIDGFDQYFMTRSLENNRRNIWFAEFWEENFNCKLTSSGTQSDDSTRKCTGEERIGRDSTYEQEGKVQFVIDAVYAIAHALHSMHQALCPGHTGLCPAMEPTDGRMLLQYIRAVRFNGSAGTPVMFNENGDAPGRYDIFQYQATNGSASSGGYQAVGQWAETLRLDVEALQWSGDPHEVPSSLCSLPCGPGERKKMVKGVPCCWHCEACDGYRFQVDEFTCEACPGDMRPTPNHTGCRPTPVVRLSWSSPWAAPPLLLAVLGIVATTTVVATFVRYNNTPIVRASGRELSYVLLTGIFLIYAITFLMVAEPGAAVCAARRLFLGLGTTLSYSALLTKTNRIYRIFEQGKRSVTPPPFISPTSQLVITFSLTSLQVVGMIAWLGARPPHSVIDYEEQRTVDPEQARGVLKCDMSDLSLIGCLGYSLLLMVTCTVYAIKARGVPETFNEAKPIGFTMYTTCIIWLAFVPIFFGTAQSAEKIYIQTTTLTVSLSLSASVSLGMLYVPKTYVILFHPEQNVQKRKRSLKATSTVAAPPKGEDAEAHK
Sequence of Metabotropic glutamate receptor 2 (Q14416 whole entry): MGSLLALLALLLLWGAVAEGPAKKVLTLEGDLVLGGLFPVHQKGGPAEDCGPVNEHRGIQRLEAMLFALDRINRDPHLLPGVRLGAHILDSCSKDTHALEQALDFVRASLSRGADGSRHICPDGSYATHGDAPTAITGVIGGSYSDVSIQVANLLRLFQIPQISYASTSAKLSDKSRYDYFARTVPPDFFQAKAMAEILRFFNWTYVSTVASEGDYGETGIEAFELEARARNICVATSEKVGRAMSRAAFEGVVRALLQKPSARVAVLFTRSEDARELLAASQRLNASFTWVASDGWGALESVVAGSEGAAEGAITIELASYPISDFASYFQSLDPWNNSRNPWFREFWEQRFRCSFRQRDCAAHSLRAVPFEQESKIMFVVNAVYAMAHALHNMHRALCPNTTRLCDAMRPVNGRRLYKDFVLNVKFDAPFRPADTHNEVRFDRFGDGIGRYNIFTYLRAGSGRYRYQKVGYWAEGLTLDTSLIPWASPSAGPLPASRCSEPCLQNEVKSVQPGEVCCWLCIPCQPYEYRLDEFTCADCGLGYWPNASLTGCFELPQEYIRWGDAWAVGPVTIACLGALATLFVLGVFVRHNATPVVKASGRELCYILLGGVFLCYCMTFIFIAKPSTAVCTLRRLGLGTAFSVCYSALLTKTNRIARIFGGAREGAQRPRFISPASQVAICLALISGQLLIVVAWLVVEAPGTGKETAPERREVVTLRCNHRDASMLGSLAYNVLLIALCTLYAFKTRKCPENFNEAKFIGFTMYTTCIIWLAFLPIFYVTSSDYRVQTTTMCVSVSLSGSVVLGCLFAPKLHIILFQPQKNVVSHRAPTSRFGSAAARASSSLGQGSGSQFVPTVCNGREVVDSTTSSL

On to `COc1cc(F)c(-c2nnc(-c3cc(OC(F)(F)F)ccc3-n3cncn3)o2)cc1OC`, for which the IC50 (in general, the concentration needed to halve the response being measured) in data set [1] (read-out: IC50) is ≥ 10 µM. Also, the Activity in data set [2] was determined as 72.8%.

For `COc1ccc(-c2nnc(-c3cc(OC(F)(F)F)ccc3-n3cncn3)o2)cc1OC`, in data set [1] (read-out: IC50), the IC50 came out at 1.58 µM. Also, in data set [2], the Activity came out at 7.1%.

Turning to `COc1ccc(-c2nnc3sc(-c4cc(OC(F)(F)F)ccc4-n4cncn4)nn23)cc1OC`, the half-inhibitory concentration (IC50) result in data set [1] was “Not Active”.

For `FC(F)(F)Oc1ccc(-n2cncn2)c(-c2nnc(-c3ccc4c(c3)OCCO4)o2)c1`, the IC50 in [1] (read-out: IC50) is > 30 µM.

As for `FC(F)(F)Oc1ccc(-n2cncn2)c(-c2nnc(-c3ccc4c(c3)OCO4)o2)c1`, the IC50 in [1] (read-out: IC50) is > 30 µM.

For the molecule `COc1ccc(-c2nnc(-c3cc(OC(F)(F)F)ccc3-c3cccnc3)o2)cc1OC`, the IC50 in data set [1] (read-out: IC50) is > 30 µM.

Regarding `COc1ccc(-c2nnc(-c3cc(OC(F)(F)F)ccc3N3CCOCC3)o2)cc1OC`, in data set [1] (read-out: IC50), the IC50 worked out at 1.18 µM. For the same molecule, the Activity in data set [2] turned out to be 23.1%.

For `COc1ccc(-c2nc(-c3cc(OC(F)(F)F)ccc3-n3cncn3)no2)cc1OC`, the half-inhibitory concentration (IC50) in data set [1] (read-out: IC50) was determined as 2.39 µM. For the same molecule, the Activity in data set [2] was 8.4%.

For `COc1cc(-c2nnc(-c3cc(OC(F)(F)F)ccc3-n3cncn3)o2)ccn1`, the IC50 in data set [1] (read-out: IC50) was ≥ 10 µM. In addition, the Activity in data set [2] was 68.9%.

With `COc1cc(-c2nnc(-c3cc(OC(F)(F)F)ccc3-n3cncn3)o2)ccc1F`, the IC50 in data set [1] (read-out: IC50) was > 30 µM.

Turning to `COc1cc(-c2nnc(-c3cc(OC(F)(F)F)ccc3-n3cncn3)o2)ccc1OCC1CC1`, the IC50 in data set [1] (read-out: IC50) came out at 1.31 µM. In addition, the Activity in [2] came out at 13.2%. Moreover, the fraction unbound – broadly, the share of the substance not bound to proteins or other matrix – at 4 h, 5 µM in data set [3] was 0.038. Moreover, the partition ratio (Kp) – broadly, tissue or fluid exposure divided by exposure in the circulation – in data set [4] worked out at 2. In addition, in [5], the Kp uu is 0.43.

As for `COc1ccc(-c2nnc(-c3cc(OC(F)(F)F)ccc3-n3ccnc3)o2)cc1OC`, the half-inhibitory concentration (IC50) was 0.57 µM in data set [1] (read-out: IC50); > 10 µM in [9]; > 10 µM in [10]; > 10 µM in data set [11]; > 10 µM in data set [12]; > 10 µM in data set [13]. Also, the half-maximal inhibitory concentration (IC50) in data set [14] and in data set [15] was > 10 µM in each case. Moreover, the Activity in [2] turned out to be 6.3%. Besides, the Fu in data set [3] (4 h, 5 µM) is recorded as 0.1. The Kp in data set [4] turned out to be 4.9. Also, the Kp uu in data set [5] is 0.65. Further, in [6], the fraction unbound at 6 h, 5 µM was 0.013. Also, in data set [7], the concentration at 0.25 h was 456 nM. In [8], the “Drug uptake(free)” value was found to be 6 nM.

Take `COc1ccc(-c2nnc(-c3cc(OC(F)(F)F)ccc3-c3ccnnc3)o2)cc1OC`: the IC50 in data set [1] (read-out: IC50) was ≥ 10 µM. For the same molecule, the Activity in data set [2] was determined as 27.6%.

With `COc1ccc(-c2nnc(-c3cc(OC(F)(F)F)ccc3N3CCCC3)o2)cc1OC`, the IC50 in [1] (read-out: IC50) was > 30 µM.

Regarding `COc1ccc(-c2coc(-c3cc(OC(F)(F)F)ccc3-n3cncn3)n2)cc1OC`, in [1] (read-out: IC50), the IC50 amounted to 7.63 µM. In addition, the Activity in [2] worked out at 21.1%.

`COc1ccc(-c2nnnn2-c2cc(OC(F)(F)F)ccc2-n2cncn2)cc1OC`: the half-inhibitory concentration (IC50) result in data set [1] is on record as “Not Active”.

Take `COc1cc(-c2nnc(-c3cc(OC(F)(F)F)ccc3-n3cncn3)o2)cnc1OC`: the half-inhibitory concentration (IC50) in data set [1] (read-out: IC50) stood at 4.38 µM. For the same molecule, in data set [2], the Activity is 13.5%.

As for `COc1ccc(-c2nn3cc(-c4cc(OC(F)(F)F)ccc4-n4cncn4)nc3s2)cc1OC`, the IC50 entry in data set [1] is recorded as “Not Active”.

As to `COc1ccc(-c2nnc(-c3cc(OC(F)(F)F)ccc3-n3cncn3)o2)cc1F`, the IC50 in data set [1] (read-out: IC50) was > 30 µM.

In the case of `COc1ccc(-c2nnc(-c3cc(OC(F)(F)F)ccc3N3CCCCC3)o2)cc1OC`, the IC50 in data set [1] (read-out: IC50) came out at 5.86 µM. For the same molecule, in data set [2], the Activity was found to be 65.4%.

As to `COc1ccc(-c2nnc(-c3cc(OC(F)(F)F)ccc3-n3cncn3)o2)c(F)c1F`, in [1] (read-out: IC50), the IC50 was > 30 µM.

In the case of `COc1ccc(-c2ccc3nnc(-c4cc(OC(F)(F)F)ccc4-n4cncn4)n3n2)cc1OC`, the IC50 result in [1] is reported as “Not Active”.

On to `COc1ccc(-c2noc(-c3cc(OC(F)(F)F)ccc3-n3cncn3)n2)cc1OC`, for which the concentration for half-maximal inhibition (IC50) in data set [1] (read-out: IC50) came out at 1.32 µM. Besides, the Activity in data set [2] was found to be 14.5%.

As for `COc1ccc(-c2nnc(-c3cc(OC(F)(F)F)ccc3-n3cncn3)o2)cn1`, the IC50 in [1] (read-out: IC50) was > 30 µM.

Take `COc1ccc(-c2cnc(-c3cc(OC(F)(F)F)ccc3-n3cncn3)o2)cc1OC`: the IC50 in data set [1] (read-out: IC50) turned out to be 2.08 µM. The Activity in data set [2] came to 36.5%.

On to `FC(F)(F)Oc1ccc(-n2cncn2)c(-c2nnc(-c3ccc4c(c3)OC(F)(F)O4)o2)c1`, for which the half-maximal inhibitory concentration (IC50) in [1] (read-out: IC50) is > 30 µM.

For the molecule `COc1ccc(-c2nnc(-c3cc(OC(F)(F)F)ccc3-c3cscn3)o2)cc1OC`, the IC50 in [1] (read-out: IC50) came out at 3.53 µM. The Activity in data set [2] came out at 49.2%.

As to `COc1ccc(-c2ccn3c(-c4cc(OC(F)(F)F)ccc4-n4cncn4)nnc3c2)cc1OC`, in data set [1], the concentration for half-maximal inhibition (IC50) result is on record as “Not Active”.

Consider `COc1cc(-c2nnc(-c3cc(OC(F)(F)F)ccc3-n3cncn3)o2)ccc1OC1CCC1`, for which, in [1] (read-out: IC50), the IC50 was determined as 1.55 µM. The Activity in data set [2] came out at 10.4%.

For `COc1ccc(-c2nnc(-c3cc(OC(F)(F)F)ccc3-c3cn[nH]c3)o2)cc1OC`, in [1] (read-out: IC50), the IC50 was determined as 2.24 µM. Further, the Activity in [2] was 10.3%.

In the case of `COc1ccc(-c2cn(-c3cc(OC(F)(F)F)ccc3-n3cncn3)nn2)cc1OC`, the half-maximal inhibitory concentration (IC50) in [1] (read-out: IC50) was ≥ 10 µM. Besides, the Activity in data set [2] amounted to 32.4%.

As for `COc1ccc(-c2nsc(-c3cc(OC(F)(F)F)ccc3-n3cncn3)n2)cc1OC`, the IC50 in data set [1] (read-out: IC50) was ≥ 10 µM. For the same molecule, the Activity in data set [2] worked out at 41.5%.

Take `COc1ccc(-c2nnc(-c3cc(OC(F)(F)F)ccc3-c3ccncc3)o2)cc1OC`: the IC50 in data set [1] (read-out: IC50) is ≥ 10 µM. Moreover, in [2], the Activity turned out to be 27.9%.

Consider `COc1ccc(-c2c[nH]c(-c3cc(OC(F)(F)F)ccc3-n3cncn3)n2)cc1OC`, for which the IC50 in [1] (read-out: IC50) was ≥ 10 µM. Moreover, the Activity in data set [2] came out at 34.2%.

For `COc1ccc(-c2nnc(-c3cc(OC(F)(F)F)ccc3-c3cnn(C)c3)o2)cc1OC`, in data set [1] (read-out: IC50), the 50% inhibitory concentration (IC50) was > 30 µM.

As for `COc1cc(-c2nnc(-c3cc(OC(F)(F)F)ccc3-n3cncn3)o2)cc(F)c1OC`, in [1] (read-out: IC50), the IC50 was > 30 µM.

As to `COc1ccc(-c2nnc(-c3cc(OC(F)(F)F)ccc3-c3ccnn3C)o2)cc1OC`, in [2], the Activity was determined as 20.6%.

For `COc1ccc(-c2nnc(-c3cc(OC(F)(F)F)ccc3N3CCN(C)CC3)o2)cc1OC`, the IC50 in data set [1] (read-out: IC50) is > 30 µM.

(Values after ChEMBL document CHEMBL4392832, “Surveying heterocycles as amide bioisosteres within a series of mGlu7 NAMs: Discovery of VU6019278” (Bioorg Med Chem Lett, 2019).)
